Laboratory results taken from patent US10307357B2, “Prebiotic oral care compositions containing an alkyl glycoside” (COLGATE-PALMOLIVE COMPANY, priority 2013, dated 2019).

Experiments:
[1] = test system: beneficial oral bacteria and pathogenic oral bacteria; assay: Microarray screen, conclusion over the panel; type: cell-based; details: at 24 hrs and at 48 hrs; threshold 2
Description: Substrates that were able to increase the metabolic activity of at least one of the above beneficial bacteria while not or only minimally increasing the growth of the pathogenic bacteria are considered to be prebiotic substrates. The extent of metabolic activity of the tested bacteria in the presence of the above-mentioned glycosides after 24 hours and 48 hours was investigated through a high throughput phenotype microarray system (PM) for microbial cells (Biolog Inc.). Each PM can contain up to 95 different biochemical compounds (e.g. glycosides) that may act as substrates for bacteria as well as one negative control, not containing the substrates. Microarray plates were used in which the different wells of each plate were pre-loaded (by the manufacturer, Biolog Inc.) with different glycosides to be tested. […] Color changes were measured spectrophotometrically at 492 nm (Thermo Scientific Multiskan Ascent) at 24 hrs and 48 hrs using the same plate at both time points. […] After 24 hrs and 48 hrs under continuous shaking in a Multiscan microplate reader, the optical density (OD) of the synthetic medium at 24 hours and 48 hours was measured (using the microplate reader) at a wavelength of 492 nm for each combination of bacterium/glycoside, and for each of their respective controls (i.e. which contained the particular bacterium but no glycosides). […]

[2] = test system: beneficial oral bacteria and pathogenic oral bacteria; assay: Twenty-four hour biofilm growth, conclusion over the panel; type: cell-based; details: threshold 1.6
Excerpt: Substrates that were able to increase the biofilm mass of at least one of the above beneficial bacteria while not or only minimally increasing the biofilm mass of the pathogenic bacteria are considered to be prebiotic compounds. The increase in biofilm formation of the tested bacteria in response to selected glycosides (β-methyl-D-galactoside and α-methyl-D-galactoside) was investigated by setting up biofilm growth assays in a nutritionally rich medium (brain heart infusion broth (BHI), Oxoid), over 24 hours. Late exponential growth phase liquid cultures were prepared by transferring the respective bacterium from blood agar plates to BHI and overnight incubation at 37° C. in an anaerobic atmosphere for A. viscosus, V. parvula, P. gingivalis, P. intermedia, T. forsythia, A. naeslundii, and C. sputigena, and in a 5% CO2 environment for S. salivarius, S. sanguinis, S. mitis, A. actinomycetemcomitans, S. mutans, and S. gordonii. […] Quantification of the stained biofilm was performed by measuring the absorbance at 630 nm using a Multiskan Ascent microplate reader (Thermo Scientific). […] For each day and for each combination, the average (mean) of the values obtained (as detailed above) for the four technical replicas was calculated to provide a single value for each combination on each day. […]

Compound	prebiotic effect (metabolic activity), in words [1]	prebiotic effect (biofilm growth), in words ([2]; at concentrations of 5, 10, and 20 μmol/ml)	prebiotic effect (biofilm growth), in words ([2]; at concentrations of 5, 10, 20 and 25 μmol/ml)
CO[C@H]1O[C@H](CO)[C@H](O)[C@H](O)[C@H]1O [α-methyl-D-galactoside]	exhibited prebiotic effects	exhibited prebiotic effects	–
CO[C@@H]1O[C@H](CO)[C@H](O)[C@H](O)[C@H]1O [β-methyl-D-galactoside]	exhibited prebiotic effects	–	exhibited prebiotic effects
